In US20220062240A1, “METHODS OF TREATING CANCER USING A CLK INHIBITOR” (BioSplice Therapeutics, Inc., priority 2018, published 2022):
pEC50: −log10 of the molar value. Where two headings read alike, the source gives them in different places.

How the values were obtained:
Format in all cases: cell-based
[1] = test system: ovarian cancer (4 cell lines); test: CellTiter-Glo Viability Assay, ovarian cancer; settings: Homo sapiens, inhibition of cancer cell proliferation
[2] = test system: lung cancer (4 cell lines); test: CellTiter-Glo Viability Assay, lung cancer; settings: Homo sapiens, inhibition of cancer cell proliferation
[3] = test system: haematopoietic & lymphoid tumors (13 cell lines); test: CellTiter-Glo Viability Assay, haematopoietic & lymphoid tumors; settings: Homo sapiens, inhibition of cancer cell proliferation
[4] = test system: colorectal cancer (6 cell lines); test: CellTiter-Glo Viability Assay, colorectal cancer; settings: Homo sapiens, inhibition of cancer cell proliferation
[5] = test system: prostate cancer (5 cell lines); test: CellTiter-Glo Viability Assay, prostate cancer; settings: Homo sapiens
[6] = test system: pancreatic cancer (8 cell lines); test: CellTiter-Glo Viability Assay, pancreatic cancer; settings: Homo sapiens, inhibition of cancer cell proliferation
all 50 cell lines = test: CellTiter-Glo Viability Assay, average across all cell lines; settings: Homo sapiens; across all 50 cell lines; read-out: average EC50 for inhibition of cancer cell proliferation
In short: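 Luminescent ATP read-out (CellTiter-Glo) after a 4-day compound exposure at 37° C served as the viability measure. Cells were seeded at 300-3,000/well, compound wells run in duplicate against DMSO controls, and EC50 values came from fitted dose-response curves.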

ZR-75-1 = test: CellTiter-Glo Viability Assay, breast cancer; settings: Homo sapiens, 96 h; ZR-75-1, breast cancer, four days; read-out: EC50
DU4475 = test: CellTiter-Glo Viability Assay, breast cancer; settings: Homo sapiens, DU-4475, 96 h; DU4475, breast cancer, four days; read-out: EC50
T47D = test: CellTiter-Glo Viability Assay, breast cancer; settings: Homo sapiens, 96 h, breast cancer, four days, read-out: EC50
BT-549 = test: CellTiter-Glo Viability Assay, breast cancer; settings: Homo sapiens, 96 h; BT-549, breast cancer, four days; read-out: EC50
MDA-MB-231-Luc = test: CellTiter-Glo Viability Assay, breast cancer; settings: Homo sapiens, 96 h; MDA-MB-231-Luc, breast cancer, four days; read-out: EC50
CAMA1 = test: CellTiter-Glo Viability Assay, breast cancer; settings: Homo sapiens, CAMA-1, 96 h; CAMA1, breast cancer, four days; read-out: EC50
HCC1599 = test: CellTiter-Glo Viability Assay, breast cancer; settings: Homo sapiens, 96 h; HCC1599, breast cancer, four days; read-out: EC50
MCF7 = test: CellTiter-Glo Viability Assay, breast cancer; settings: Homo sapiens, 96 h; MCF7, breast cancer, four days; read-out: EC50
[7] = test system: liver cancer (3 cell lines); test: CellTiter-Glo Viability Assay, liver cancer; settings: Homo sapiens, inhibition of cancer cell proliferation

- EC50 ([1]; PA-1, PA1 cell line, read-out: Ovarian cancer, EC50 (μM) PA1): 0.795 µM
- EC50 ([1]; TOV112D, TOV-112D cell line, read-out: Ovarian cancer, EC50 (μM) TOV-112D): 0.713 µM
- EC50 ([1]; OV-90 cell line, read-out: Ovarian cancer, EC50 (μM) OV-90): 5.69 µM
- EC50 ([1]; OVCAR-3 cell line, read-out: Ovarian cancer, EC50 (μM) OVCAR-3): 0.302 µM
- EC50 ([2]; A-427, A427 cell line, read-out: Lung cancer, EC50 (μM) A427): 0.591 µM
- EC50 ([2]; HCC78, HCC-78 cell line, read-out: Lung cancer, EC50 (μM) HCC-78): 4.68 µM
- EC50 ([2]; NCI-H460 cell line, read-out: Lung cancer, EC50 (μM) NCI-H460): > 10 µM
- EC50 ([2]; NCI-H522 cell line, read-out: Lung cancer, EC50 (μM) NCI-H522): 0.417 µM
- EC50 ([3]; DND41, DND-41 cell line, read-out: Haematopoietic & Lymphoid tumors, EC50 (μM) DND-41): 0.432 µM
- EC50 ([3]; MV4-11, MV-4-11 cell line, read-out: Haematopoietic & Lymphoid tumors, EC50 (μM) MV-4-11): 0.039 µM
- EC50 ([3]; Rec1, REC-1 cell line, read-out: Haematopoietic & Lymphoid tumors, EC50 (μM) REC-1): 2.78 µM
- EC50 ([3]; SU-DHL-4, SUDHL4 cell line, read-out: Haematopoietic & Lymphoid tumors, EC50 (μM) SUDHL4): 0.398 µM
- EC50 ([3]; HL-60 cell line, read-out: Haematopoietic & Lymphoid tumors, EC50 (μM) HL-60): 1.42 µM
- EC50 ([3]; JM1 cell line, read-out: Haematopoietic & Lymphoid tumors, EC50 (μM) JM1): 0.176 µM
- EC50 ([3]; JURKAT, Clone E6-1 cell line, read-out: Haematopoietic & Lymphoid tumors, EC50 (μM) JURKAT, Clone E6-1): 3.17 µM
- EC50 ([3]; JeKo-1 cell line, read-out: Haematopoietic & Lymphoid tumors, EC50 (μM) JeKo-1): 0.182 µM
- EC50 ([3]; KASUMI-1 cell line, read-out: Haematopoietic & Lymphoid tumors, EC50 (μM) KASUMI-1): 0.801 µM
- EC50 ([3]; Loucy cell line, read-out: Haematopoietic & Lymphoid tumors, EC50 (μM) Loucy): 0.466 µM
- EC50 ([3]; MOLT-4 cell line, read-out: Haematopoietic & Lymphoid tumors, EC50 (μM) MOLT-4): 2.96 µM
- EC50 ([3]; TF-1 cell line, read-out: Haematopoietic & Lymphoid tumors, EC50 (μM) TF-1): 6.09 µM
- EC50 ([3]; TOLEDO cell line, read-out: Haematopoietic & Lymphoid tumors, EC50 (μM) TOLEDO): 0.17 µM
- EC50 ([4]; HCT-116, HCT116 cell line, read-out: Colorectal cancer, EC50 (μM) HCT116): 0.86 µM
- EC50 ([4]; HT-29, HT29 cell line, read-out: Colorectal cancer, EC50 (μM) HT29): 8.89 µM
- EC50 ([4]; SW-620, SW620 cell line, read-out: Colorectal cancer, EC50 (μM) SW620): 0.473 µM
- EC50 ([4]; DLD-1 cell line, read-out: Colorectal cancer, EC50 (μM) DLD-1): 2.35 µM
- EC50 ([4]; SW48 cell line, read-out: Colorectal cancer, EC50 (μM) SW48): 0.469 µM
- EC50 ([4]; SW480 cell line, read-out: Colorectal cancer, EC50 (μM) SW480): 0.491 µM
- pEC50 ([5]; DU-145, read-out: Prostate cancer EC50 Du-145): 5.59
- pEC50 ([5]; PC-3, PC3 cell line, inhibition of cancer cell proliferation, read-out: Prostate cancer EC50 PC3): 5.93
- pEC50 ([5]; 22Rv1 cell line, inhibition of cancer cell proliferation, read-out: Prostate cancer EC50 22Rv1): 6.01
- pEC50 ([5]; LNCap clone FGC cell line, inhibition of cancer cell proliferation, read-out: Prostate cancer EC50 LNCap clone FGC): 5.11
- pEC50 ([5]; VCaP (Sigma) cell line, inhibition of cancer cell proliferation, read-out: Prostate cancer EC50 VCaP (Sigma)): 5.34
- pEC50 ([6]; BXPC-3, BxPC3 cell line, read-out: Pancreatic cancer, EC50 BxPC3): 5.22
- pEC50 ([6]; CAPAN-1, Capan1 cell line, read-out: Pancreatic cancer, EC50 Capan1): 5.63
- pEC50 ([6]; Capan-2, Capan2 cell line, read-out: Pancreatic cancer, EC50 Capan2): 5.30
- pEC50 ([6]; MIA PaCa-2 cell line, read-out: Pancreatic cancer, EC50 MIA PaCa-2): 6.38
- pEC50 ([6]; PANC 05.04 cell line, read-out: Pancreatic cancer, EC50 PANC 05.04): 5.27
- pEC50 ([6]; PANC-1 cell line, read-out: Pancreatic cancer, EC50 PANC-1): < 5.00
- pEC50 ([6]; UPAFII cell line, read-out: Pancreatic cancer, EC50 UPAFII): 5.71
- pEC50 (ZR-75-1): 5.77
- pEC50 (DU4475): 5.40
- pEC50 (T47D): 5.63
- pEC50 (BT-549): 5.93
- pEC50 (MDA-MB-231-Luc): 5.68
- pEC50 (CAMA1): 5.56
- pEC50 (HCC1599): 5.93
- pEC50 (MCF7): < 5.00
- pEC50 ([7]; SNU-398, SNU398 cell line, read-out: Liver cancer, EC50 SNU398): 6.76
- pEC50 ([7]; HEPG2 cell line, read-out: Liver cancer, EC50 HEPG2): 5.44
- pEC50 ([7]; PLC/PRF/5 cell line, read-out: Liver cancer, EC50 PLC/PRF/5): < 5.00
Structure (SMILES): CN(C)Cc1cncc(-c2cnc3[nH]nc(-c4nc5c(-c6cc(F)cc(N7CCOCC7)c6)cncc5[nH]4)c3c2)c1 [Compound 46]
- pEC50 (all 50 cell lines): 5.54
